Reference: ChEMBL document CHEMBL1156414, “Safety and activity of the immune modulator HE2000 on the incidence of tuberculosis and other opportunistic infections in AIDS patients” (2007)
Active and inactive are the calls of the source. No cut-off for these calls is given here.

How the values were obtained:
[1] = test system: Mycobacterium tuberculosis; assay: Reduction in incidence of Mycobacterium tuberculosis coinfection in AIDS patient at 100 mg administered intramuscularly once daily for 5 days; assay type: functional; design: scale not given: the % may be the effect or the level left
[2] = test system: Mycobacterium tuberculosis; assay: Reduction in incidence of Mycobacterium tuberculosis coinfection in AIDS patient at 100 mg administered intramuscularly once daily for 5 days measured 140 days postdose; assay type: functional, organism-based
[3] = test system: Homo sapiens; assay: Reduction in cumulative incidence of opportunistic infections in AIDS patient at 100 mg administered intramuscularly once daily for 5 days; assay type: functional, organism-based

With `C[C@]12CC[C@H](O)C[C@@H]1CC[C@@H]1[C@@H]2CC[C@]2(C)C(=O)[C@H](Br)C[C@@H]12` [16.ALPHA.-BROMOEPIANDROSTERONE] the Activity [1] was 42.2%, the Activity [2] was “Active” and the Activity [3] was “Active”.
